Reference: patent publication US20220408724A1, “METHOD FOR CONTROLLING METABOLISM OF BRANCHED FATTY ACID” (KAO CORPORATION, priority 2019, published 2022)

Key:
Format in all cases: cell-based
[1] = tested on: Moraxella osloensis; assay: Examination example: measurement of viable bacterial count
Experimental: (§1) After culture on fabric prepared in the same manner as in the above (1), 9 mL of an LP diluent (manufactured by NIHON PHARMACEUTICAL CO., LTD.) was added, and the extraction of the bacteria was carried out under ultrasound for 10 minutes. The extraction liquid was poured and mixed to an SCD-LP agar medium (NIHON PHARMACEUTICAL CO., LTD.), and culture was thereafter carried out at 37° C.; for a day. The number of colonies obtained on each piece of the fabric was counted, and a common logarithm value thereof was measured as the viable bacterial count. […] In addition, the […], the more the viable bacterial count of the microorganism is maintained.

[2] = tested on: Moraxella osloensis; assay: Examination example: suppression of metabolism of 14-methylhexadecanoic acid, components (a) and (b)/(b′); details: for Metabolism of branched fatty acid: Residual amount (μg/fabric g): 14-methylhexadecanoic acid
Experimental: The suppression of metabolism of 14-methylhexadecanoic acid by bacteria of the genus Moraxella and the suppression of a metabolite therefrom were tested in the following manner.
Moraxella osloensis (strain isolated from clothing) was precultured on an SCD-LP agar medium (NIHON PHARMACEUTICAL CO., LTD.) at 37° C.; for 24 hours, and a bacterial suspension of 10^6 (CFU/ml) was prepared by using an NB liquid medium (Difco) diluted to 1/20 with ion exchange water.
A methanol solution in which 14-methylhexadecanoic acid (SIGMA-ALDRICH) was dissolved was added dropwise to 3 cm×3 cm pieces of sterilized plain-weave cotton fabric to make it adhered to the fabric. The adhesion amount of 14-methylhexadecanoic acid was set to 10 μg per piece of the plain-weave cotton fabric (100 μg/fabric g). Further, a methanol solution in which component (a) was dissolved, and then, a methanol solution in which component (b) or (b′) was dissolved were added dropwise to the fabric to which 14-methylhexadecanoic acid adhered, and it was thereafter dried for an hour. This fabric was placed in a sterilized screw tube bottle No. 3 (Maruemu Corporation) and 100 μl of the bacterial suspension was inoculated thereto, and culture was carried out under 37° C.; conditions for 21 hours.
(§2) 3 ml of methanol was added to the screw tube bottle after culture, and extraction was carried out under ultrasonic irradiation for 30 minutes (20° C.). The extraction liquid was mixed with a (trimethylsilyl)diazomethane hexane solution (FUJIFILM Wako Pure Chemical Corporation) at 9:1 (volume ratio) and left overnight under room temperature and dark place conditions. After that, 14-methylhexadecanoic acid remaining on the fabric was quantified by GC. The quantification conditions for GC are as follows. • GC: Agilent 6890N • GC column: Agilent DB-1 30 m×250 μm×0.25 μm • Temperature rise condition: 50° C. (held for 3 minutes)-(10° C./min)-300° C. (held for 5 minutes) • Sample injection volume: 1 μl • Split ratio: 1:12 • Detector: FID
(§3) The residual amount of 14-methylhexadecanoic acid after culture on the fabric to which each metabolism controlling agent was added was quantified, and the ratio of the residual amount to that of 14-methylhexadecanoic acid in the case of adding no metabolism controlling agent (control) was calculated as a metabolism suppression rate (%). The higher a numerical value thereof is, the more the metabolism is suppressed. Note that the metabolism suppression rate was determined by the following formula:
Metabolism suppression rate(%)=[1−(100−A)/(100−B)]×100 • A: residual amount of 14-methylhexadecanoic acid of reference or examination example (μg/fabric g) • B: residual amount of 14-methylhexadecanoic acid of control (μg/fabric g)
A control is an example in which none of component (a), (b) or (b′) is added, and references 1-1, 2-1, 3-1 and 4-1 qualify as this (the same applies hereinafter). In these controls, the metabolism suppression rate is 0′.

[3] = tested on: Moraxella osloensis; assay: Examination example: suppression of metabolite 4-methyl-3-hexenoic acid, components (a) and (b)/(b′)
Experimental: (§4) After culture on fabric prepared in the same manner as in the above (1), 3 ml of methanol was added, and extraction was carried out under ultrasonic irradiation for 30 minutes (20° C.). The extraction liquid was mixed with (a 1000 ppm methanol solution of) an ADAM reagent of Funakoshi Co., Ltd. at 1:1 (volume ratio) and left overnight under room temperature and dark place conditions. After that, 4-methyl-3-hexenoic acid as a metabolite from 14-methylhexadecanoic acid was quantified by HPLC. The quantification conditions are as follows.
Eluent: acetonitrile 61% (v/v), water 39% (v/v) Column temperature: 40° C. Sample injection volume: 10 μL Flow rate: 1.0 mL/min
The production amount of 4-methyl-3-hexenoic acid after culture on the fabric to which the metabolism controlling agent was added was quantified, and the ratio of the production amount to that of 4-methyl-3-hexenoic acid in the case of adding no metabolism controlling agent (control) was calculated as a metabolite suppression rate (%). The higher a numerical value thereof is, the more the metabolism is suppressed. Note that the metabolite suppression rate was determined by the following formula. In references 1-1, 2-1, 3-1 and 4-1, which are controls, the metabolite suppression rate is 0%.
Metabolite suppression rate(%)=100×[(D−C)/D] • C: production amount of metabolite of reference or examination example (μg/fabric g) • D: production amount of metabolite of control (μg/fabric g)

[4] = tested on: Micrococcus aloeverae; assay: Suppression of metabolite 2-methylbutanoic acid from 14-methylhexadecanoic acid; details: agent 250 μg/fabric g
Experimental: as §4
The production amount of 4-methyl-3-hexenoic acid after culture on the fabric to which each metabolism controlling agent was added was quantified, and the ratio of the production amount to that of 4-methyl-3-hexenoic acid in the case of adding no metabolism controlling agent (control) was calculated as a metabolite suppression rate (%). The higher a numerical value thereof is, the more the metabolism is suppressed. Note that the metabolite suppression rate was determined by the following formula:
Metabolite suppression rate(%)=100×[(D−C)/D] • C: production amount of metabolite of example or comparative example (μg/fabric g) • D: production amount of metabolite of control (μg/fabric g)
(§5) The metabolism of 14-methylhexadecanoic acid by bacteria of the genus Micrococcus was tested in the same manner as in example 1.
(§6) In this example, Micrococcus aloeverae (strain isolated from clothing) was used as a microorganism.
(§7) Further, in this example, a bacterial suspension of 10^7 (CFU/ml) prepared by using an SCD liquid medium (NIHON PHARMACEUTICAL CO., LTD.) diluted to 1/10 with ion exchange water was used as a bacterial suspension.
Further, in this example, 2-methylbutanoic acid was quantified as a metabolite from 14-methylhexadecanoic acid, and the metabolite suppression rate was determined in the same manner as in example 1.
(§8) Note that, in this example, C12OH (1-dodecanol) was used as the metabolism controlling agent.

[5] = tested on: Micrococcus aloeverae; assay: Measurement of viable bacterial count on fabric; details: agent 250 μg/fabric g
Experimental: as §1, §5, §6, §7, §8

[6] = tested on: Micrococcus aloeverae; assay: Suppression of metabolism of 14-methylhexadecanoic acid on cotton fabric; details: agent 250 μg/fabric g
Experimental: A methanol solution in which 14-methylhexadecanoic acid (SIGMA-ALDRICH) was dissolved was added dropwise to 3 cm×3 cm pieces of sterilized plain-weave cotton fabric to make it adhered to the fabric. The adhesion amount of 14-methylhexadecanoic acid was set to 10 μg per piece of the plain-weave cotton fabric (100 μg/fabric g).
Further, a methanol solution in which each metabolism controlling agent was dissolved was prepared and added dropwise to the fabric to which 14-methylhexadecanoic acid adhered, and it was thereafter dried for an hour. This fabric was placed in a sterilized screw tube bottle No. 3 (Maruemu Corporation) and 100 μl of the bacterial suspension was inoculated thereto, and culture was carried out under 37° C.; conditions for 21 hours.
as §2, with “7890A” for “6890N”
as §3, with “the” for “each”
Metabolism suppression rate(%)=[1−(100−A)/(100−B)]×100 • A: residual amount of 14-methylhexadecanoic acid of example or comparative example (μg/fabric g) • B: residual amount of 14-methylhexadecanoic acid of control (μg/fabric g)
as §5, §6, §7, §8

| SMILES | Viable bacterial count (Log (cfu/fabric cm^2)) ([1]; single agent 2 μg/fabric g) | Viable bacterial count (Log (cfu/fabric cm^2)) ([1]; single agent 5 μg/fabric g) | Metabolism of branched fatty acid: Residual amount (μg/fabric g) ([2]; single agent 2 μg/fabric g) | Metabolism of branched fatty acid: Residual amount (μg/fabric g) ([2]; single agent 5 μg/fabric g) | Metabolism of branched fatty acid: Metabolism suppression rate (%) ([2]; single agent 2 μg/fabric g) | Metabolism of branched fatty acid: Metabolism suppression rate (%) ([2]; single agent 5 μg/fabric g) | Product of metabolism of branched fatty acid: Metabolite suppression rate (%) ([3]; single agent 2 μg/fabric g) | Product of metabolism of branched fatty acid: Production amount (μg/fabric g) ([3]; single agent 2 μg/fabric g) | Product of metabolism of branched fatty acid: Metabolite suppression rate (%) ([3]; single agent 5 μg/fabric g) | Product of metabolism of branched fatty acid: Production amount (μg/fabric g) ([3]; single agent 5 μg/fabric g) | Viable bacterial count (Log (cfu/fabric cm^2)) ([1]; single agent 1 μg/fabric g) | Metabolism of branched fatty acid: Residual amount (μg/fabric g) ([2]; single agent 1 μg/fabric g) | Metabolism of branched fatty acid: Metabolism suppression rate (%) ([2]; single agent 1 μg/fabric g) | Product of metabolism of branched fatty acid: Metabolite suppression rate (%) ([3]; single agent 1 μg/fabric g) | Product of metabolism of branched fatty acid: Production amount (μg/fabric g) ([3]; single agent 1 μg/fabric g) | further results |
| --- | --- | --- | --- | --- | --- | --- | --- | --- | --- | --- | --- | --- | --- | --- | --- | --- |
| N#CC(C#N)=NNc1cccc(Cl)c1 [CCCP, carbonylcyanide-m-chlorophenylhydrazone] | 6.1 Log (cfu/fabric cm^2) | 5.5 Log (cfu/fabric cm^2) | 44 | 56 | 8 | 28 | 25 | 3.3 | 36 | 2.8 | – | – | – | – | – | – |
| C/C=C/C/C=C/CCC(=O)[C@H]1O[C@H]1C(N)=O [Cerulenin, [2R,3S]-2,3-epoxy-4-oxo-7,10-trans,trans-dodecanoic acid amide] | – | 6.1 Log (cfu/fabric cm^2) | – | 39 | – | 0 | – | – | 2 | 4.3 | – | – | – | – | – | Viable bacterial count (Log (cfu/fabric cm^2)) ([1]; single agent 10 μg/fabric g): 6.3 Log (cfu/fabric cm^2); Viable bacterial count (Log (cfu/fabric cm^2)) ([1]; single agent 20 μg/fabric g): 6.3 Log (cfu/fabric cm^2); Metabolism of branched fatty acid: Residual amount (μg/fabric g) ([2]; single agent 10 μg/fabric g): 41 μg/fabric g; Metabolism of branched fatty acid: Residual amount (μg/fabric g) ([2]; single agent 20 μg/fabric g): 48 μg/fabric g; Metabolism of branched fatty acid: Metabolism suppression rate (%) ([2]; single agent 10 μg/fabric g): 3%; Metabolism of branched fatty acid: Metabolism suppression rate (%) ([2]; single agent 20 μg/fabric g): 15%; Product of metabolism of branched fatty acid: Metabolite suppression rate (%) ([3]; single agent 10 μg/fabric g): 9%; Product of metabolism of branched fatty acid: Production amount (μg/fabric g) ([3]; single agent 10 μg/fabric g): 4.0 μg/fabric g; Product of metabolism of branched fatty acid: Metabolite suppression rate (%) ([3]; single agent 20 μg/fabric g): 11%; Product of metabolism of branched fatty acid: Production amount (μg/fabric g) ([3]; single agent 20 μg/fabric g): 3.9 μg/fabric g |
| Oc1cc(Cl)ccc1Oc1ccc(Cl)cc1 [Diclosan, 4-4′-dichloro-2-hydroxydiphenyl ether] | 6.0 Log (cfu/fabric cm^2) | 5.1 Log (cfu/fabric cm^2) | 46 | 56 | 11 | 27 | 14 | 3.8 | 41 | 2.6 | 6.2 Log (cfu/fabric cm^2) | 43 | 7 | 5 | 4.2 | – |
| CCCCCCCCCCCCOCCOCCOCCOCCOCCO [Example C12E5, pentaethylene glycol mono-1-dodecyl ether, reference compound] | – | – | – | – | – | – | – | – | – | – | – | – | – | – | – | Metabolite suppression rate (%) [4]: 6%; Bacterial count (Log (cfu/fabric cm^2)) [5]: 6.6 Log (cfu/fabric cm^2); Metabolism suppression rate (%) [6]: −3% |
| Oc1cc(Cl)ccc1Oc1ccc(Cl)cc1Cl [Triclosan, 2,4,4′-trichloro-2′-hydroxydiphenyl ether] | 6.0 Log (cfu/fabric cm^2) | – | 44 | – | 8 | – | 7 | 4.1 | – | – | 6.2 Log (cfu/fabric cm^2) | 38 | −2 | 5 | 4.2 | Viable bacterial count (Log (cfu/fabric cm^2)) ([1]; single agent 0.5 μg/fabric g): 6.2 Log (cfu/fabric cm^2); Metabolism of branched fatty acid: Residual amount (μg/fabric g) ([2]; single agent 0.5 μg/fabric g): 43 μg/fabric g; Metabolism of branched fatty acid: Metabolism suppression rate (%) ([2]; single agent 0.5 μg/fabric g): 6% |
